In this experiment the test system is Akt-mTOR pathway. Briefly: Western blot of Akt, 4EBP1 and S6K phosphorylation (mechanism of macrophage induction). As to conditions: IL-4 20 ng/ml + MeCbl 1 mM + RAD001 (200 nM), 30 minutes. In kind it is cell-based, mouse. The procedure: The J774A.1 cells (Example 5-1) were seeded on a dish having a diameter of 6 cm. After 4 days, proteins were collected using a cell lysis buffer containing a cocktail of protease inhibitors. The protein concentration was measured by BCA assay. Then, 50 μg of each sample was subjected to SDS-PAGE, and the electrophoresed proteins were transferred to a polyvinylidene difluoride membrane. The membrane was blocked with a blocking buffer for 1 hour, and then the proteins were allowed to react with primary antibodies at 4° C. overnight. The proteins were further allowed to react with a secondary antibody at room temperature for 1 hour and detected using ECL Western Blotting Detection System. To detect the M1 markers iNOS and IL-1β, lipopolysaccharide (LPS) (100 ng/ml) and methylcobalamin were added at 24 hours before collecting the proteins. To detect the M2 markers Arg1 and CD206, IL-4 (20 ng/ml) and methylcobalamin were added at 72 hours before collecting the proteins.
The mechanism of the macrophage induction (Example 5) by methylcobalamin was analyzed. Specifically, the analysis was carried out as follows. At 30 minutes after IL-4 and methylcobalamin (100 nM and 1 mM) were added, activation of Akt, 4EBP1, and S6K in the Akt-mTOR pathway (one of the major signaling pathways that induce M2 gene expression) was evaluated by Western blot. In the pathway, Akt phosphorylation occurs in response to an upstream signal, and 4EBP1 phosphorylation and S6K phosphorylation further occur through mTORC1 in the downstream. The S6K phosphorylation provides a negative feedback to the upstream of the signaling pathway. Western blot was performed as in Example 5-2, except that IL-4 (20 ng/ml), methylcobalamin, and RAD001 (200 nM) were added at 30 minutes before the proteins were collected, and the primary antibodies for detection were changed.
On the technique in general: In western blotting, separated proteins are transferred to a membrane and probed.

Each structure is given as a SMILES string.

For `CO[C@H]1C[C@@H]2CC[C@@H](C)[C@@](O)(O2)C(=O)C(=O)N2CCCC[C@H]2C(=O)O[C@H]([C@H](C)C[C@@H]2CC[C@@H](OCCO)[C@H](OC)C2)CC(=O)[C@H](C)/C=C(\C)[C@@H](O)[C@@H](OC)C(=O)[C@H](C)C[C@H](C)/C=C/C=C/C=C/1C` [RAD001], the p-4EBP1/4EBP1 result is recorded as “suppressed”, the p-Akt/Akt entry was “rescued” and the p-S6K/S6K result is reported as “suppressed”.

Source of the values: patent publication US12029751B2, “Therapeutic agent for nervous system disease” (OSAKA UNIVERSITY, priority 2017, dated 2024).
